This is an account of results in BindingDB's records for doi:10.1074/jbc.M113.537704 (Icahn School Of Medicine At Mount Sinai, 2014).

pIC50: −log10 of the molar value.

Assay [1] addresses EEF1AKMT4-ECE2 readthrough transcript protein (Homo sapiens, UniProt P0DPD8). Kind of assay: Enzyme Activity Assay. The following applies: pH 5.5. On the procedure: (§1) Recombinant ECE2 (32.5 ng) with a specific activity of 12 pmol/min/μg protein was generated as described previously. Secreted soluble recombinant ECE1 (30 ng) with a specific activity of 750 pmol/min/μg protein was generated and purified using a protocol similar to that used for ECE2. Solubilized midbrain membranes (10 μg) from wildtype or ECE2 knock-out mice were prepared as described. Enzymatic activity, in the absence or presence of the ECE2 inhibitor S136492 or the ECE1 inhibitor SM19712, was assayed using the synthetic quenched fluorescent substrate McaBk2 (10 μM) at 37 °C with either 0.2 M sodium acetate buffer, pH 5.5, or 50 mM Tris-Cl buffer, pH 7.4, as described previously [Gagnidze et al., J. Med. Chem., 51:3378-3387; Ouimet et al., J. Biol. Chem., 285:34390-34400].

In assay [2] the target is T1, Endothelin-converting enzyme 1 (Homo sapiens, UniProt P42892).
T1 sequence (P42892 whole entry): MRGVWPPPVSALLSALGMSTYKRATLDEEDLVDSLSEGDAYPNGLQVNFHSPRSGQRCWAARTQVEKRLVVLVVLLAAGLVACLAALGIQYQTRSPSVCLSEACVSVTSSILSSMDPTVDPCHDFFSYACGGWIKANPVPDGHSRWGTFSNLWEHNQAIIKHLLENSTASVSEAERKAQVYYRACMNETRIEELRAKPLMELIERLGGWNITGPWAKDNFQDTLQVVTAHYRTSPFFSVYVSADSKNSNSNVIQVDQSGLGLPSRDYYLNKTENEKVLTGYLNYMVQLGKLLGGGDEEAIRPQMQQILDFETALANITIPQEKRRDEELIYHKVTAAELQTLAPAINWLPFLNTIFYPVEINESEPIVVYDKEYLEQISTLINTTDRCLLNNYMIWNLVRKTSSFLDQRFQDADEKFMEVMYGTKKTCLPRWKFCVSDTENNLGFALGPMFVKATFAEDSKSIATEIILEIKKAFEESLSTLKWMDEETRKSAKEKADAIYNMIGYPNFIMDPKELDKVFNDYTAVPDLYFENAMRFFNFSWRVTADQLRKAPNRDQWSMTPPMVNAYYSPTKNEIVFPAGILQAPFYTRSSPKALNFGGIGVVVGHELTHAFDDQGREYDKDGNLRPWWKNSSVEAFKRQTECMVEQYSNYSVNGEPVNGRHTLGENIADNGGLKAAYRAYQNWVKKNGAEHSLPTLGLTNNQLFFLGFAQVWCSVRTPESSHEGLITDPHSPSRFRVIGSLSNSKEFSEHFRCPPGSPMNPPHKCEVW
Kind of assay: Enzyme Activity Assay. As to the method:
as §1

EEF1AKMT4-ECE2 readthrough transcript protein, sequence (P0DPD8 whole entry): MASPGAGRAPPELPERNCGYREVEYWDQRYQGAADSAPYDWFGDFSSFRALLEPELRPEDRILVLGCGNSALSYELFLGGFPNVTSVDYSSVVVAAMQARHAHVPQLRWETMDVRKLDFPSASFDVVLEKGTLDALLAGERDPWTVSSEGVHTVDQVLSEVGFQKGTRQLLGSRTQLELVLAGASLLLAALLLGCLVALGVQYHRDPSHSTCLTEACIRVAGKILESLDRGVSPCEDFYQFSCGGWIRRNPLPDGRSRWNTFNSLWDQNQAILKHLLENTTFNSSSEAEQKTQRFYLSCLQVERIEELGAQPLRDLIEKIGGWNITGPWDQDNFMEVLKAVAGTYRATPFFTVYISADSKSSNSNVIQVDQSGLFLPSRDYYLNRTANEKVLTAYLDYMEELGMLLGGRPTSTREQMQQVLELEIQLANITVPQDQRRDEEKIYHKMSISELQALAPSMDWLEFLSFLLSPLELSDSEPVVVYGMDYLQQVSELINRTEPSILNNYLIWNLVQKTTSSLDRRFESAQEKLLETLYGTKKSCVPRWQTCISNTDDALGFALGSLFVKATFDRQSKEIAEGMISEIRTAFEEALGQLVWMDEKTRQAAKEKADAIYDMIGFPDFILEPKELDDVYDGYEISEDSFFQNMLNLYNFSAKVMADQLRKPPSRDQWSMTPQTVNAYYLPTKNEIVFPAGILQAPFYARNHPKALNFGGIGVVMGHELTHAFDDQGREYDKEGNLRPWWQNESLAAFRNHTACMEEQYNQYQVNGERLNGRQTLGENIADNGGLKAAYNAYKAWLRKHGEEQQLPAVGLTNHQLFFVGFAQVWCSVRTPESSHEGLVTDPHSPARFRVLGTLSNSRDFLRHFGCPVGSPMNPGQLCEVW

On to `Cc1[nH]nc(NC(=O)NS(=O)(=O)c2ccc(Cl)cc2)c1C#N` [SM19712], for which the pIC50 (commonly the negative decadic logarithm of the IC50, by convention in mol/L) in assay [1] is 8.30; in assay [2] (pH 5.5) it was < 4.00; in assay [2] (pH 7.4), 5.96.
For `Oc1ccccc1/C=C\c1ccc2ccccc2n1` [2-(2-(quinolin-2-yl)vinyl)phenol], the results for the pIC50 in assay [1], in assay [2] (pH 5.5) and in assay [2] (pH 7.4) were 5.80, < 4.00 and < 4.00, respectively.
